Results: patent US8957000B2, “Use of sarmentine and its analogs for controlling plant pests” (Marrone Bio Innovations, Inc., priority 2009, dated 2015)
Where two headings read alike, the source gives them in different places. Each block holds one compound with its values, some of them ahead of it.

What was measured:
[1] = tested on: Barnyard grass (Echinochloa crusgalli L.); test: Herbicidal activity, foliar spraying (spectrum and SAR study); type: in vivo; conditions: for pest or weed control at 5000 µg/mL: Echinochloa crus-galli, 72 h, read-out: Efficacy of phytotoxic activity; for pest or weed control at 5000 µg/mL / Efficacy of phytotoxic activity: at least 3 days after spraying
Source text: (§1) All weed, sedge and crop seedlings were planted in 8 cm×8 cm×7.2 cm or 10 cm×10 cm×9 cm plastic pots. Seedlings including pigweed (Amaranthus retroflexus, L.), barnyard grass (Echinochloa crusgalli L.), bindweed (Convolvulus arvensis L.), crabgrass (Digitaria sanguinalis L.), dandelion (Taraxacum officinale F.), lambsquarters (Chenopodium album L.), bluegrass (Poa annua L.), wild mustard (Brassica kaber L.), black nightshade (Solanum nigrum L.), curly dock (Rumex crispus L.), horseweed (Conyza Canadensis L.), sweet corn (Zea may S.) and wheat PR 1404 (Triticum aestivum L.) were planted in Super Soil potting soil. Seedlings including rice M-104 (Oryza saliva L.), sedge (Cyperus difformis L.) and sprangletop (Leptochloa fascicularis Lam) were planted in mud which was collected from rice field (Woodland, Calif., USA). When treated, all seedlings were 15 days old except for rice (10 days), wheat (20 days), corn (20 days) sprangletop (20 days old), sedge (20 days old) and horse weed (70 days old).
(§2) Herbicidal activity of the active compound and synthesized compounds was evaluated by foliar spraying. Spraying carrier solution contained 2% ethanol, 0.2% glycosperse O-20 and 0.1% sodium lauryl sulfate. Freshly made solution with the evaluated compound at a concentration of 5 mg/mL was used. In the spectrum study, spraying volume was dependent on the foliar surface area, ranging from approximately 1 to 3 mL/pot plants. One or two pots of plants were treated for each. Number of pots was dependent on both foliar area and availability. In the structure-activity relationship study, one pot of barnyard grass was used and the spraying volume of each compound was 3 mL of 5 mg/mL.
(§3) The optimal concentration of sarmentine was 5 mg/mL for excellent control of barnyard grass (Figure 2). Therefore, such a concentration was subjected to herbicidal spectrum study. Due to the hydrophobic property of sarmentine, a carrier solution containing 0.2% glycosperse O-20, 2% ethanol and 0.1% sodium lauryl sulfate was used. Although this solution contains a high concentration of surfactants, sarmentine can stay suspended in this solution no more than 15 min. Therefore, sarmentine was made freshly just before spraying.

plants = test: Symptom of phytotoxic activity after spraying; type: in vivo; conditions: sarmentine solution
Method: as §2
Sarmentine is a contact phytotoxic compound. When plants were treated with sarmentine solution, slightly black tiny spots would first show on the leaves and then became bigger and bigger until they covered the whole leaves, especially obvious on the barnyard grass. […] This symptom was observed very similarly to that of middle-chain fatty acids such as decanoic acid (21, Table 4) and 2E-decenoic acid (22, Table 3) during the SAR study.

[2] = tested on: Bindweed (Convolvulus arvensis, L.); test: Herbicidal spectrum, foliar spraying; type: in vivo; conditions: foliar spray 5 mg/mL
Source text: as §1, §2, §3

[3] = tested on: Crabgrass (Digitaria sanguinalis L.); test: Herbicidal spectrum, foliar spraying; type: in vivo; conditions: foliar spray 5 mg/mL
Source text: as §1, §2, §3

[4] = tested on: Pigweed (Amaranthus retroflexus, L.); test: Herbicidal spectrum, foliar spraying; type: in vivo; conditions: foliar spray 5 mg/mL
Source text: as §1, §2, §3

[5] = tested on: Sprangletop (Leptochloa fascicularis Lam.); test: Herbicidal spectrum, foliar spraying; type: in vivo; conditions: foliar spray 5 mg/mL
Source text: as §1, §2, §3

[6] = tested on: Horse weed (Conyza Canadensis L.); test: Herbicidal spectrum, foliar spraying; type: in vivo; conditions: foliar spray 5 mg/mL
Source text: as §1, §2, §3

Bluegrass (Poa annua L.) = test: Herbicidal spectrum, foliar spraying; type: in vivo; conditions: foliar spray 5 mg/mL
Source text: as §1, §2, §3

[7] = tested on: Wild mustard (Brassica kaber L.); test: Herbicidal spectrum, foliar spraying; type: in vivo; conditions: foliar spray 5 mg/mL
Source text: as §1, §2, §3

[8] = tested on: Sedge (Cyperus difformis L.); test: Herbicidal spectrum, foliar spraying; type: in vivo; conditions: foliar spray 5 mg/mL
Source text: as §1, §2, §3

Sweet corn (Zea mays S.) = test: Herbicidal spectrum, foliar spraying; type: in vivo; conditions: foliar spray 5 mg/mL
Source text: as §1, §2, §3

[9] = tested on: Wheat (PR 1404) (Triticum aestivum L.); test: Herbicidal spectrum, foliar spraying; type: in vivo; conditions: foliar spray 5 mg/mL
Source text: as §1, §2, §3

[10] = tested on: Dandelion (Taraxacum officinale F.); test: Herbicidal spectrum, foliar spraying; type: in vivo; conditions: foliar spray 5 mg/mL
Source text: as §1, §2, §3

[11] = tested on: Rice (M 104) (Oryza saliva L); test: Herbicidal spectrum, foliar spraying; type: in vivo; conditions: foliar spray 5 mg/mL
Source text: as §1, §2, §3

[12] = tested on: Curly dock (Rumex crispus L.); test: Herbicidal spectrum, foliar spraying; type: in vivo; conditions: foliar spray 5 mg/mL
Source text: as §1, §2, §3

[13] = tested on: Black nightshade (Solanum nigrum L.); test: Herbicidal spectrum, foliar spraying; type: in vivo; conditions: foliar spray 5 mg/mL
Source text: as §1, §2, §3

[14] = tested on: Lambsquarters (Chenopodium album L.); test: Herbicidal spectrum, foliar spraying; type: in vivo; conditions: foliar spray 5 mg/mL
Source text: as §1, §2, §3

[15] = Suspension of sarmentine in spraying carrier solution; type: physicochemical; conditions: 0.2% glycosperse O-20, 2% ethanol and 0.1% sodium lauryl sulfate
Method: as §3

[16] = SAR study, one pot of barnyard grass, foliar spray 3 mL of 5 mg/mL
[17] = SAR study, barnyard grass, foliar spray 3 mL of 5 mg/mL
[18] = 15 days old, 1 to 3 mL/pot, at least 3 days after spraying
[19] = 20 days old, 1 to 3 mL/pot, at least 3 days after spraying

Compound: CCCCC/C=C\C=C\C(=O)OCC [No 3]
pest or weed control at 5000 µg/mL [1, 16]: < 20%

Compound: CCCCCCCCCC(=O)NC1CCCC1 [No 4, N-Cyclopentyldecanamide]
pest or weed control at 5000 µg/mL [1, 16]: < 20%

Compound: CCCCC/C=C\C=C\C(=O)NC1CCCC1 [No 6, N-Cyclopentyl 2E,4Z-decadienamide]
pest or weed control at 5000 µg/mL [1, 16]: < 20%

Compound: O=C(/C=C/c1ccccc1)NC1CCCC1 [No 7, N-Cyclopentylcinnamamide]
pest or weed control at 5000 µg/mL [1, 16]: < 20%

Compound: CCCCCCCCCC(=O)N1CCCC1 [No 8, N-(Decanoyl)pyrrolidine]
pest or weed control at 5000 µg/mL [1, 16]: 80 to 100%
Phytotoxic activity relative to sarmentine / toxicity to barnyard grass (in words) [1, 17]: remained the same

Compound: CCCCCCC/C=C/C(=O)N1CCCC1 [No 9, N-(Decenoyl)pyrrolidine]
pest or weed control at 5000 µg/mL [1, 16]: 80 to 100%
Phytotoxic activity relative to sarmentine / toxicity to barnyard grass (in words) [1, 17]: remained the same

Compound: CCCCC/C=C\C=C\C(=O)N1CCCC1 [No 10, (2E,4Z-Decadienoyl)pyrrolidine]
pest or weed control at 5000 µg/mL [1, 16]: 80 to 100%
Phytotoxic activity relative to sarmentine / toxicity to barnyard grass (in words) [1, 17]: remained the same

Compound: O=C(/C=C/c1ccccc1)N1CCCC1 [No 11, N-(trans-Cinnamoyl)pyrrolidine]
pest or weed control at 5000 µg/mL [1, 16]: 80 to 100%
Phytotoxic activity relative to sarmentine / toxicity to barnyard grass (in words) [1, 17]: remained the same

Compound: CCCCCCCCCC(=O)N1CCCCC1 [No 12, N-(Decanoyl)piperidine]
pest or weed control at 5000 µg/mL [1, 16]: 80 to 100%
Phytotoxic activity relative to sarmentine / toxicity to barnyard grass (in words) [1, 17]: remained the same

Compound: CCCCCCC/C=C/C(=O)N1CCCCC1 [No 13, N-(Decenoyl)piperidine]
pest or weed control at 5000 µg/mL [1, 16]: 80 to 100%

Compound: CCCCC/C=C\C=C\C(=O)N1CCCCC1 [No 14, (2E,4Z-Decadienoyl)piperidine]
pest or weed control at 5000 µg/mL [1, 16]: 80 to 100%

Compound: O=C(/C=C/c1ccccc1)N1CCCCC1 [No 15, N-(trans-Cinnamoyl)piperidine]
pest or weed control at 5000 µg/mL [1, 16]: 40 to 60%

Compound: CCCCCCCCCC(=O)N1CCCCCC1 [No 16, N-(Decanoyl)hexamethyleneimine]
pest or weed control at 5000 µg/mL [1, 16]: 80 to 100%
Phytotoxic activity relative to sarmentine / toxicity to barnyard grass (in words) [1, 17]: remained the same

Compound: CCCCCCC/C=C/C(=O)N1CCCCCC1 [No 17, N-(Decenoyl)hexamethyleneimine]
pest or weed control at 5000 µg/mL [1, 16]: 80 to 100%

Compound: CCCCC/C=C\C=C\C(=O)N1CCCCCC1 [No 18, (2E,4Z-Decadienoyl)hexamethleneimine]
pest or weed control at 5000 µg/mL [1, 16]: 80 to 100%

Compound: O=C(/C=C/c1ccccc1)N1CCCCCC1 [No 19, N-(trans-Cinnamoyl) hexamethleneimine]
pest or weed control at 5000 µg/mL [1, 16]: < 20%

Compound: O=C(O)/C=C/c1ccccc1 [No 20, trans-cinnamic acid, reference compound]
pest or weed control at 5000 µg/mL [1, 16]: 60 to 80%
Phytotoxic activity relative to sarmentine / toxicity to barnyard grass (in words) [1, 17]: very active

Compound: CCCCCCCCCC(=O)O [No 21, decanoic acid]
pest or weed control at 5000 µg/mL [1, 16]: 80 to 100%
Phytotoxic activity relative to sarmentine / toxicity to barnyard grass (in words) [1, 17]: very active

Compound: CCCCCCC/C=C/C(=O)O [No 22, 2E-decenoic acid]
pest or weed control at 5000 µg/mL [1, 16]: 80 to 100%
Phytotoxic activity relative to sarmentine / toxicity to barnyard grass (in words) [1, 17]: very active

Compound: NC1CCCC1 [No 23, cyclopentylamine, reference compound]
Phytotoxic activity relative to sarmentine / toxicity to barnyard grass (in words) [1, 17]: non toxic
Efficacy of phytotoxic activity [1, 16]: I

Compound: C1CCNCC1 [No 25, piperidine, reference compound]
Phytotoxic activity relative to sarmentine / toxicity to barnyard grass (in words) [1, 17]: non toxic
Efficacy of phytotoxic activity [1, 16]: I

Compound: C1CCCNCC1 [No 26, hexamethyleneimine, reference compound]
Phytotoxic activity relative to sarmentine / toxicity to barnyard grass (in words) [1, 17]: non toxic
Efficacy of phytotoxic activity [1, 16]: I

Time sarmentine can stay suspended in carrier solution [15]: no more than 15 min
Compound: CCCCC/C=C/C=C/C(=O)N1CCCC1 [sarmentine, N-(2E,4E-Decadienoyl) pyrrolidine]
Time after spraying within which predominant phytotoxic activity happened (plants): ≤ 48 h
Efficacy of phytotoxic activity [2, 18]: VI (VI (80-100%))
Phytotoxic activity (in words) [2]: highly phytotoxic activity
Efficacy of phytotoxic activity [3, 18]: VI (VI (80-100%))
Phytotoxic activity (in words) [3]: highly phytotoxic activity
Efficacy of phytotoxic activity [4, 18]: VI (VI (80-100%))
Phytotoxic activity (in words) [4]: highly phytotoxic activity
Efficacy of phytotoxic activity [5, 19]: VI (VI (80-100%))
Phytotoxic activity (in words) [5]: highly phytotoxic activity
Efficacy of phytotoxic activity ([6]; horse weed, 70 days old, 1 to 3 mL/pot, at least 3 days after spraying): II (II (<20%))
Phytotoxic activity (in words) ([6]; horseweed (70-day-old)): Slightly phytotoxic activity
Phytotoxic activity (in words) (Bluegrass (Poa annua L.); blue grass): highly phytotoxic activity
Efficacy of phytotoxic activity (Bluegrass (Poa annua L.); bluegrass, 15 days old, 1 to 3 mL/pot, at least 3 days after spraying): VI (VI (80-100%))
Efficacy of phytotoxic activity [7, 18]: VI (VI (80-100%))
Phytotoxic activity (in words) [7]: highly phytotoxic activity
Efficacy of phytotoxic activity [8, 19]: III (III (20-40%))
Phytotoxic activity (in words) [8]: Slightly phytotoxic activity
Efficacy of phytotoxic activity (Sweet corn (Zea mays S.); [19]): VI (VI (80-100%))
Phytotoxic activity (in words) (Sweet corn (Zea mays S.)): highly phytotoxic activity
Efficacy of phytotoxic activity ([9]; wheat PR 1404, 20 days old, 1 to 3 mL/pot, at least 3 days after spraying): VI (VI (80-100%))
Phytotoxic activity (in words) ([9]; wheat): highly phytotoxic activity
Efficacy of phytotoxic activity [10, 18]: VI (VI (80-100%))
Phytotoxic activity (in words) [10]: highly phytotoxic activity
Efficacy of phytotoxic activity ([11]; rice M-104, 10 days old, 1 to 3 mL/pot, at least 3 days after spraying): I
Phytotoxic activity (in words) ([11]; rice plants, after 10 days): No visible phytotoxic activity
Efficacy of phytotoxic activity [12, 18]: VI (VI (80-100%))
Phytotoxic activity (in words) [12]: highly phytotoxic activity
Efficacy of phytotoxic activity [13, 18]: VI (VI (80-100%))
Phytotoxic activity (in words) [13]: highly phytotoxic activity
Efficacy of phytotoxic activity [14, 18]: VI (VI (80-100%))
Phytotoxic activity (in words) [14]: highly phytotoxic activity
pest or weed control at 5000 µg/mL ([1]; spectrum study, barnyard grass, 15 days old, foliar spray 5 mg/mL, 1 to 3 mL/pot): 80 to 100%
Efficacy of phytotoxic activity [1, 16]: VI (VI (80-100%))
Optimal concentration for excellent control of barnyard grass ([1]; foliar spraying, Figure 2): 5 mg/mL
Phytotoxic activity (in words) ([1]; spectrum study, barnyard grass, foliar spray 5 mg/mL): highly phytotoxic activity

Compound: pyrrolidine [No 24, reference compound]
Phytotoxic activity relative to sarmentine / toxicity to barnyard grass (in words) [1, 17]: non toxic
Efficacy of phytotoxic activity [1, 16]: I
